Data as given in patent publication US8350033B2, “4-((3, 5, 6-trimethylpyrazine-2-yl) methoxyl) benzoic acid and its derivatives” (priority 2007, dated 2013).
pIC50: −log10 of the molar value.

What was measured:
aggregation of platelet = experiment: Experiment of resisting platelet aggregation (ADP-induced, platelet-rich plasma, absorbance at 600 nm); format: cell-based, rabbit; details: for pIC50: Oryctolagus cuniculus, rabbit platelet-rich plasma, ADP final concentration of 4 μmol/L, read-out: IC50 (50% inhibitory concentration) on aggregation of platelet
Experimental: Experiment of resisting platelet aggregation with the ligustrazine aromatic acid ether derivatives: Anaesthetizing intravenously a rabbit with 3% pentobarbital sodium, separating arteria carotis communis and taking blood by inserting a pipe, using 3.8% sodium citrate solution (dissolving 3.8 g sodium citrate with distilled water, up to 100 mL, filtering, bottling, sterilizing under 121° C. and high pressure for 15 min) as an anticoagulant (1:9), 1000 r/min, centrifuging for 5 min to prepare platelet-rich plasma (PRP), 3000 r/min, centrifuging for 15 min to prepare platelet-poor plasma (PPP). Cultivating the PRP under 37° C. in a silicified cuvette for 5 min, measuring absorbance (A) at 600 nm, adjusting the absorbance of the PRP to 0.6-0.7 with the PPP, adding 1.7 mL adjusted PRP into another silicified cuvette, adding 200 μL of the test drug, measuring the absorbance at 600 nm before adding […], then adding 100 μL of ADP (final concentration of 4 μmol/L), respectively measuring the absorbance when 2 and 5 min after adding the ADP, calculating aggregation rate (AR) by the following formula: AR=(A before adding the ADP−A after adding the ADP)/A before adding the ADP (100%.). At the same time, calculating aggregation inhibition rate (AIR) of the tested drug to platelet: AIR=[1−(aggregation percentage in administrated tube/aggregation percentage in contrast tube)]×100. Calculating 50% inhibitory concentration (IC50) of the tested drug, referring to table 2.

Structure (SMILES)	pIC50 (aggregation of platelet)	antiplatelet aggregative activity compared with Ozagrel positive drug (in words) (aggregation of platelet; rabbit PRP, ADP)	melting point	antiplatelet aggregative activity relative to Ozagrel (aggregation of platelet; ratio to Ozagrel positive drug, rabbit PRP, ADP)
Cc1nc(C)c(COc2ccc(C(=O)O)cc2)nc1C [MC1, 4-((3,5,6-trimethylpyrazine-2-yl)methoxyl)benzoic acid]	2.87	stronger than Ozagrel	179 to 181 °C	–
COc1cc(/C=C/C(=O)O)ccc1OCc1nc(C)c(C)nc1C [MC2, (E)-3-(4-((3,5,6-Trimethylpyrazin-2-yl)methoxy)-3-methoxyphenyl)acrylic acid]	3.55	stronger than Ozagrel	156 to 158 °C	5.7 times
COc1cc(C(=O)O)ccc1OCc1nc(C)c(C)nc1C [Example 5, 4-((3,5,6-trimethylpyrazine-2-yl)methoxyl)-3-methoxybenzoic acid]	–	–	183 to 185 °C	–
O=C(O)/C=C/c1ccc(Cn2ccnc2)cc1 [Ozagrel, reference compound]	2.80	–	–	–
COc1cc(C(=O)O)cc(OC)c1OCc1nc(C)c(C)nc1C [Example 2, 4-((3,5,6-trimethylpyrazine-2-yl)methoxyl)-3,5-dimethoxybenzoic acid]	–	–	> 218 °C (dec.)	–
COc1ccc(C(=O)O)cc1OCc1nc(C)c(C)nc1C [MC5, 3-((3,5,6-trimethylpyrazine-2-yl)methoxyl)-4-methoxybenzoic acid]	3.00	stronger than Ozagrel	190 to 192 °C	–
